Results on four molecules are retold here after patent US11524950B2, “Treatment of immune-related and inflammatory diseases” (Celgene Corporation, priority 2012, dated 2022).

A value given as a limit tells only on which side of the number the result lay.

The test system of one assay is Tsk-1 mouse. In words: Tight skin-1 (Tsk-1) mouse model: hypodermal thickness and hydroxyproline. The note with it: 50 mg/kg; p≤0.001. The format is in vivo. An excerpt: First, the inhibitory effects of the compound on fibrosis in the Tsk-1 tight skin mouse model were also investigated.
Assay [1] has as its system DBA/2 mice. In words: Bleomycin-induced dermal fibrosis mouse model (prevention). The format is in vivo. The note with it: 50 mg/kg, IP, QD, p<0.0001. The protocol:
(§1) DBA/2 mice were used in this study. Eight animals were used per treatment group in the study. Mice were kept in the animal house under standard conditions with food and water ad libidum.
The vehicle, 0.5% carboxymethyl cellulose (CMC)/0.25% Tween 80, was prepared in distilled H2O and dissolved overnight on a magnetic stirrer (add 0.5 g CMC; Sigma #C9481) and 0.25 ml Tween 80 (Sigma #P8074) to 99.75 ml to make a total of 100 ml 0.5% CMC/0.25% Tween 80).
(§2) The compound was suspended, not dissolved, in this vehicle. The formulation was homogenized with a Teflon pestle and mortar (Potter-Elvehjem tissue grinder) using a motorized Eberbach tissue homogenizer. The daily drug stock concentration used in these studies was 3 mg/ml.
(§3) Bleomycin was obtained from the pharmacy of the University of Erlangen-Nuremberg and freshly prepared once a week. Skin fibrosis was induced in 6-week-old DBA mice by local intracutaneous injections of 100 μl of bleomycin dissolved in 0.9% NaCl, at a concentration of 0.5 mg/ml, every other day in defined areas of 1.5 cm^2 on the upper back.
The mouse model of bleomycin induced dermal fibrosis is widely used to evaluate anti-fibrotic therapeutics. In this model, a localized dermal fibrosis is induced by intradermal injections with bleomycin every other day for 3 weeks. This model resembles early, inflammatory stages of SSc. To evaluate potential effects on prevention of fibrosis, treatment was initiated simultaneously with the first bleomycin injection. […] Treatment consisted of administration of the vehicle (0.5% CMC/0.25% Tween 80). • Untreated bleomycin group: Intradermal injection of bleomycin for three weeks. […] Injection of Imatinib (50 mg/kg; IP, QD). […] See Akhmetshina A. et al., Arthritis Rheum 2009; 60(1):219-224.
(§4) Dermal thickness was determined by staining with hematoxylin and eosin and activated fibroblasts by using immunohistochemistry for alpha smooth muscle actin (α-SMA). The dermal thickness, as determined by the modified Rodnan Skin Score, is currently the most common primary outcome in human clinical trials for anti-fibrotic agents in SSc. […] Dermal thickness was analyzed with a Nikon Eclipse 80i microscope (Nikon, Badhoevedorp, The Netherlands) by measuring the maximal distance between the epidermal-dermal junction and the dermal-subcutaneous fat junction at 4 different skin sections in each mouse. […]
(§5) For quantification of myofibroblasts, skin sections were deparaffinized and incubated with 5% bovine serum albumin for 60 minutes. Cells positive for α-SMA were detected by incubation with monoclonal anti-α-SMA antibodies (clone 1A4; Sigma-Aldrich, Steinheim, Germany) for 2 hours at room temperature followed by incubation with 3% hydrogen peroxide for 10 minutes. […]

For assay [2], the system named is DBA/2 mice. In words: Bleomycin-induced dermal fibrosis mouse model (regression of established fibrosis). It counts as in vivo. The following applies: 50 mg/kg, p<0.0001. The protocol:
as §1, §2, §3
To evaluate regression of fibrosis, a modified model of bleomycin induced dermal fibrosis was used. Mice were pre-challenged with bleomycin to induce a robust skin fibrosis. One group received treatment with the test compound, while challenge with bleomycin was ongoing for additional three weeks. The outcome of this group was compared to mice challenged with bleomycin for six weeks (prevention of further progression) and to mice challenged with bleomycin for three weeks followed by NaCl for additional three weeks (induction of regression). The following groups were used in the regression study: • Control group: Intradermal injection of NaCl for six weeks. Control treatment consisted of administration of the vehicle. • Untreated bleomycin group 1 (regression): Intradermal injection of bleomycin for three weeks followed by intradermal injections of NaCl for another three weeks. Treatment consisted of administration of the vehicle. […]
as §4, §5

Assay [3] concerns IgM. In words: IgM production in normal PBMC differentiation cultures (ELISA). The following applies: Homo sapiens, read-out: IgM IC50 (nM) Normal (n = 3). (In general: An ELISA detects its analyte on a solid surface through an enzyme-linked reagent.)
In assay [4] the test system is IgM. In words: IgM production by SLE patient PBMC (ELISA). The following applies: Homo sapiens, read-out: IgM IC50 (nM) SLE (n = 3).
The test system of assay [5] is IgG. In words: IgG production in normal B cell / PBMC differentiation cultures (ELISA). The following applies: Homo sapiens.
For assay [6], the system named is IgG. Kind of assay: IgG production by SLE patient PBMC (ELISA). The following applies: Homo sapiens, read-out: IgG IC50 (nM) SLE (n = 3).
The next assay addresses T1, CRBN (Homo sapiens, UniProt Q96SW2).
T1 construct: endogenous in cells; host or cells: U266 multiple myeloma cells (cell extracts)
Kind of assay: Competitive CRBN binding with thalidomide analog-conjugated beads (U266 extracts). The following applies: preincubation at 3 uM. The protocol:
Binding studies to CRBN were conducted using thalidomide analog-conjugated beads in a competitive assay. […] Affinity beads coupled to a thalidomide acid analog were incubated with the U266 extracts and, after extensive washing of the beads, the bound proteins were eluted. CRBN binding to the thalidomide-coupled affinity beads was determined by quantitative CRBN immunoblot determination.

The test system of a further assay is IL-2. Kind of assay: T-cell costimulation: IL-2 production (immobilized anti-CD3, ELISA). It counts as cell-based. The following applies: Homo sapiens, 48 h, read-out: EC50 for co-stimulated IL-2 production by T cells. The protocol: CRBN ubiquitination was measured in HEK293T cells, which were transfected with an amino-terminal His-biotin-tagged CRBN construct, then preincubated with compounds for one hour followed by treatment with the MG132 proteasome inhibitor (to arrest degradation of ubiquitinated proteins). Cells were lysed and processed to measure CRBN ubiquitination by SDS-PAGE and immunoblot analysis using an anti-ubiquitin antibody. Cell proliferation studies were conducted in enalidomide-sensitive and refractory multiple myeloma cells. […] T-cell costimulation was measured in purified primary human T cells stimulated using immobilized anti-CD3 antibody in cell culture for 2 days, and cytokine secretion was measured by ELISA.

[7] abbreviates: PBMC, read-out: IgG IC50 (nM) Normal (n = 3).

Usually IC50 stands for the point on the concentration scale where inhibition reaches its midpoint. The EC50 is the concentration needed to bring the measured effect to its halfway point.

On to `Cc1ccc(NC(=O)c2ccc(CN3CCN(C)CC3)cc2)cc1Nc1nccc(-c2cccnc2)n1` [Imatinib, reference compound], for which, in the assay on Tsk-1 mouse, the “reduction of collagen content of the skin (hydroxyproline levels)” value is 67% and the “reduction of hypodermal thickening” value is on record as 58%. For the same molecule, in the assay with DBA/2 mice [1] (3 weeks), the “reduction of dermal thickening” value is given as 60±0.34%. For the same molecule, the “reduction of myofibroblast numbers” value in the assay with DBA/2 mice [1] came to 81±0.11%. In the assay on DBA/2 mice [2], the “reduction of bleomycin induced dermal thickness” value worked out at 50±0.3% and the “reduction of myofibroblast numbers” value was 78±0.15%.

As to `CCOc1cc([C@@H](CS(C)(=O)=O)N2C(=O)c3cccc(NC(C)=O)c3C2=O)ccc1OC` [apremilast], the IC50 with IgM [3], in the assay with IgM [4], in the assay on IgG [5] (setting [7]) and with IgG [6] was over 10000 nM throughout.

`Nc1cccc2c1C(=O)N(C1CCC(=O)NC1=O)C2=O` (stereo not drawn) [pomalidomide]: the IC50 came to 17 nM in the assay with IgM [3]; 3.8 nM in the assay with IgM [4]; 63 nM in the assay on IgG [5] (setting [7]); 49 nM in the assay with IgG [5] (read-out: IgG production IC50); 19 nM with IgG [6]. The “less CRBN bound to the affinity beads” value at CRBN is reported as “approximately 50%”. Further, the EC50 in the assay with IL-2 amounted to 10 nM.

As for `Nc1cccc2c1CN(C1CCC(=O)NC1=O)C2=O` (stereo not drawn) [lenalidomide], the IC50 in the assay with IgG [5] (read-out: IgG production IC50) was 320 nM.
